Source: the NIST ThermoML archive (doi:10.1016/j.jct.2010.11.007)
Several values for one entry are separate records, joined by “and”; a condition that tells them apart may be missing. Equal entries are not always repeated.

Legend:
[1] = refractive index (Na D-line) (dimensionless); conditions: 101.33 kPa, Liquid, Standard Abbe refractometry
[2] = 101.33 kPa, Liquid; for speed of sound: Sing-around technique in a fixed-path interferometer; for mass density: Vibrating tube method
[3] = refractive index (Na D-line) (dimensionless); xn = mol fraction of the nth substance listed; conditions: 101 kPa, Liquid, Standard Abbe refractometry, x2 = 0
[4] = xn = mol fraction of the nth substance listed; conditions: Liquid, x2 = 0; for speed of sound: Sing-around technique in a fixed-path interferometer; for mass density: Vibrating tube method

C=CC(C)(O)CCC=C(C)C (stereo unspecified) [3,7-dimethyl-1,6-octadien-3-ol]
Conditions | mass density, [2] [kg/m3] | refractive index, [1] | speed of sound, [2] [m/s]
283.15 K | 869.39 | 1.46659 and 1.4666 | 1370.3
298.15 K | 857 | 1.45946 | 1315.1
313.15 K | 844.29 | 1.45215 | 1260.8
328.15 K | 831.31 | 1.44473 | 1207.6

CCCO [propan-1-ol]
Conditions | mass density, [2] [kg/m3] | refractive index, [1] | speed of sound, [2] [m/s]
283.15 K | 811.52 | 1.38906 | 1257.9
298.15 K | 799.56 | 1.38288 | 1206.3
313.15 K | 787.33 | 1.3766 | 1156.8
328.15 K | 774.69 | 1.37015 | 1106.8

CCCO [propan-1-ol] + C=CC(C)(O)CCC=C(C)C
[3]
Conditions | refractive index
283.15 K | 1.38906
298.15 K | 1.38288
313.15 K | 1.3766
328.15 K | 1.37015

[4]
Conditions | mass density, 101 kPa [kg/m3] | mass density, 20000 kPa [kg/m3] | mass density, 25000 kPa [kg/m3] | mass density, 30000 kPa [kg/m3] | mass density, 35000 kPa [kg/m3] | mass density, 40000 kPa [kg/m3] | speed of sound, 101 kPa [m/s]
283.15 K | 811.52 | 825.3 | 828.5 | 831.5 | 834.5 | 837.4 | 1258
298.15 K | 799.56 | 814.3 | 817.8 | 821 | 824.1 | 827.3 | 1206.3
313.15 K | 787.34 | 803.3 | 806.9 | 810.4 | 813.8 | 817 | 1156.8
328.15 K | 774.69 | 792.1 | 795.9 | 799.6 | 803.2 | 806.6 | 1106.8
